System: HEK293T cells carrying the ATF4 luciferase reporter
Experiment: ATF4-Luc assay (in vitro model of VWMD)
Format: cell-based, human
Conditions: Homo sapiens, HEK-293T, 1 μg/mL tunicamycin, 7 hours, One Glo luminescence
Experimental: In order to test exemplary compounds of the invention in a cellular context, a stable VWMD cell line was first constructed. The ATF4 reporter was prepared by fusing the human full-length ATF4 5′-UTR (NCBI Accession No. BC022088.2) in front of the firefly luciferase (FLuc) coding sequence lacking the initiator methionine as described in Sidrauski et al (eLife 2013). The construct was used to produce recombinant retroviruses using standard methods and the resulting viral supernatant was used to transduce HEK293T cells, which were then subsequently selected with puromycin to generate a stable cell line.
HEK293T cells carrying the ATF4 luciferase reporter were plated on polylysine coated 384-well plates (Greiner Bio-one) at 30,000 cells per well. Cells were treated the next day with 1 μg/mL tunicamycin and 200 nM of a compound of Formula (I) for 7 hours. Luminescence was measured using One Glo (Promega) as specified by the manufacturer. Cells were maintained in DMEM with L-glutamine supplemented with 10% heat-inactivated FBS (Gibco) and Antibiotic-Antimycotic solution (Gibco).
Table 4 below summarizes the EC50 data obtained using the ATF4-Luc assay for exemplary compounds of the invention.

Row | Compound | EC50 [nM]
1 | O=C(COc1ccc(Cl)c(F)c1)NC12CC(C(=O)NCC3CC(=O)c4cc(Cl)ccc4O3)(C1)C2 (stereo not drawn) [Compound 103, 3-[2-(4-chloro-3-fluorophenoxy)acetamido]-N-[(6-chloro-4-oxo-3,4-dihydro-2H-1-benzopyran-2-yl)methyl]bicyclo[1.1.1]pentane-1-carboxamide] | 50 to 250
2 | O=C(NC12CC(N3CC([C@H]4C[C@@H](OC(F)(F)F)C4)OC3=O)(C1)C2)[C@@H]1C[C@@H](O)c2cc(Cl)ccc2O1 (stereo partly drawn) [Compound 269, (2S,4R)-6-chloro-4-hydroxy-N-(3-{2-oxo-5-[cis-3-(trifluoromethoxy)cyclobutyl]-1,3-oxazolidin-3-yl}bicyclo[1.1.1]pentan-1-yl)-3,4-dihydro-2H-1-benzopyran-2-carboxamide] | 250 to 500
3 | O=C1C[C@H](C(=O)NC23CC(n4cnc(-c5ccc(F)c(F)c5)c4)(C2)C3)Oc2ccc(Cl)cc21 [Compound 176, (2R)-6-chloro-N-{3-[4-(3,4-difluorophenyl)-1H-imidazol-1-yl]bicyclo[1.1.1]pentan-1-yl}-4-oxo-3,4-dihydro-2H-1-benzopyran-2-carboxamide] | 10 to 50
4 | O=C(NC12CC(c3csc(O[C@H]4C[C@@H](OC(F)(F)F)C4)n3)(C1)C2)[C@H]1C[C@@H](O)c2cc(Cl)ccc2O1 [Compound 300, (2R,4R)-6-chloro-4-hydroxy-N-[3-(2-{[cis-3-(trifluoromethoxy)cyclobutyl]oxy}-1,3-thiazol-4-yl)bicyclo[1.1.1]pentan-1-yl]-3,4-dihydro-2H-1-benzopyran-2-carboxamide] | 50 to 250
5 | O=C1C[C@@H](C(=O)NC23CC(n4cnc(-c5ccc(F)c(F)c5)c4)(C2)C3)Oc2ccc(Cl)cc21 [Compound 175, (2S)-6-chloro-N-{3-[4-(3,4-difluorophenyl)-1H-imidazol-1-yl]bicyclo[1.1.1]pentan-1-yl}-4-oxo-3,4-dihydro-2H-1-benzopyran-2-carboxamide] | 50 to 250
6 | O=C(N[C@H]1C[C@H]2C[C@@H]1C[C@@H]2n1cnc(-c2ccc(F)c(F)c2)c1)[C@H]1C[C@@H](O)c2cc(Cl)ccc2O1 [Compound 304, (2R,4R)-6-chloro-N-{(1R,2S,4R,5S)-5-[4-(3,4-difluorophenyl)-1H-imidazol-1-yl]bicyclo[2.2.1]heptan-2-yl}-4-hydroxy-3,4-dihydro-2H-1-benzopyran-2-carboxamide] | < 10
7 | O=C(NC12CC(c3cc(-c4ccc(C(F)(F)F)nc4)no3)(C1)C2)[C@@H]1C[C@@H](O)c2cc(Cl)ccc2O1 [Compound 251, (2S,4R)-6-chloro-4-hydroxy-N-(3-{3-[6-(trifluoromethyl)pyridin-3-yl]-1,2-oxazol-5-yl}bicyclo[1.1.1]pentan-1-yl)-3,4-dihydro-2H-1-benzopyran-2-carboxamide] | > 2000
8 | O=C(NC12CC(n3cnc([C@H]4C[C@@H](OC(F)(F)F)C4)c3)(C1)C2)[C@H]1C[C@@H](O)c2cc(Cl)ccc2O1 [Compound 287, (2R,4R)-6-chloro-4-hydroxy-N-(3-{4-[cis-3-(trifluoromethoxy)cyclobutyl]-1H-imidazol-1-yl}bicyclo[1.1.1]pentan-1-yl)-3,4-dihydro-2H-1-benzopyran-2-carboxamide] | < 10
9 | O=C1C[C@H](C(=O)NC23CCC(C(=O)N[C@H]4C[C@@H](OC(F)(F)F)C4)(CC2)CC3)Oc2ccc(Cl)cc21 [Compound 221, (2R)-6-chloro-4-oxo-N-(4-{[cis-3-(trifluoromethoxy)cyclobutyl]carbamoyl}bicyclo[2.2.2]octan-1-yl)-3,4-dihydro-2H-1-benzopyran-2-carboxamide] | 50 to 250
10 | O=C(NC12CC(c3nnc(COc4ccc(Cl)c(F)c4)o3)(C1)C2)[C@H]1C[C@@H](O)c2cc(Cl)ccc2O1 [Compound 110, (2R,4R)-6-chloro-N-(3-{5-[(4-chloro-3-fluorophenoxy)methyl]-1,3,4-oxadiazol-2-yl}bicyclo[1.1.1]pentan-1-yl)-4-hydroxy-3,4-dihydro-2H-1-benzopyran-2-carboxamide] | < 10
11 | O=C(NC12CC(c3cc([C@H]4C[C@H](OC(F)(F)F)C4)no3)(C1)C2)[C@H]1C[C@@H](O)c2cc(Cl)ccc2O1 [Compound 284, (2R,4R)-6-chloro-4-hydroxy-N-(3-{3-[trans-3-(trifluoromethoxy)cyclobutyl]-1,2-oxazol-5-yl}bicyclo[1.1.1]pentan-1-yl)-3,4-dihydro-2H-1-benzopyran-2-carboxamide] | 50 to 250
12 | O=C(NC12CC(c3csc(-c4ccc(Cl)cc4)n3)(C1)C2)[C@H]1C[C@@H](O)c2cc(Cl)ccc2O1 [Compound 272, (2R,4R)-6-chloro-N-{3-[2-(4-chlorophenyl)-1,3-thiazol-4-yl]bicyclo[1.1.1]pentan-1-yl}-4-hydroxy-3,4-dihydro-2H-1-benzopyran-2-carboxamide] | 10 to 50
13 | Cc1nc(C23CC(NC(=O)[C@H]4C[C@@H](O)c5cc(Cl)ccc5O4)(C2)C3)oc1-c1ccc(Cl)cc1 [Compound 274, (2R,4R)-6-chloro-N-{3-[5-(4-chlorophenyl)-4-methyl-1,3-oxazol-2-yl]bicyclo[1.1.1]pentan-1-yl}-4-hydroxy-3,4-dihydro-2H-1-benzopyran-2-carboxamide] | 10 to 50
14 | O=C(NC12CC(C(=O)NCc3ccc(C(F)(F)F)cn3)(C1)C2)[C@H]1C[C@@H](O)c2cc(Cl)ccc2O1 (racemic) [Compound 123, rac-(2R,4R)-6-chloro-4-hydroxy-N-[3-(([5-(trifluoromethyl)pyridin-2-yl]methyl)carbamoyl)bicyclo[1.1.1]pentan-1-yl]-3,4-dihydro-2H-1-benzopyran-2-carboxamide] | 50 to 250
15 | O=C(NC12CC(c3cc(-c4ccc(Cl)cc4)no3)(C1)C2)[C@@H]1C[C@@H](O)c2cc(Cl)ccc2O1 [Compound 247, (2S,4R)-6-chloro-N-{3-[3-(4-chlorophenyl)-1,2-oxazol-5-yl]bicyclo[1.1.1]pentan-1-yl}-4-hydroxy-3,4-dihydro-2H-1-benzopyran-2-carboxamide] | 50 to 250
16 | O=C(NC12CC(n3cnc(-c4ccc(C(F)(F)F)nc4)c3)(C1)C2)[C@H]1C[C@@H](O)c2cc(Cl)ccc2O1 [Compound 201, (2R,4R)-6-chloro-4-hydroxy-N-(3-{4-[6-(trifluoromethyl)pyridin-3-yl]-1H-imidazol-1-yl}bicyclo[1.1.1]pentan-1-yl)-3,4-dihydro-2H-1-benzopyran-2-carboxamide] | < 10
17 | O=C(NC12CC(c3cc(-c4ccc(Cl)c(F)c4)on3)(C1)C2)[C@@H]1C[C@@H](O)c2cc(Cl)ccc2O1 [Compound 259, (2S,4R)-6-chloro-N-{3-[5-(4-chloro-3-fluorophenyl)-1,2-oxazol-3-yl]bicyclo[11.11]pentan-1-yl}-4-hydroxy-3,4-dihydro-2H-1-benzopyran-2-carboxamide] | 10 to 50
18 | O=C(N[C@@H]1C[C@@H]2O[C@H]1C[C@H]2c1nnc([C@H]2C[C@@H](OC(F)(F)F)C2)o1)[C@@H]1C[C@@H](O)c2cc(Cl)ccc2O1 (racemic) [Compound 185, (2S,4R)-6-chloro-4-hydroxy-N-[(1RS,2SR,4RS,5SR)-5-{5-[cis-3-(trifluoromethoxy)cyclobutyl]-1,3,4-oxadiazol-2-yl}-7-oxabicyclo[2.2.1]heptan-2-yl]-3,4-dihydro-2H-1-benzopyran-2-carboxamide] | > 2000
19 | O=C(CO[C@H]1C[C@@H](OC(F)(F)F)C1)NC12CC(NC(=O)C3CC(=O)c4cc(Cl)ccc4O3)(C1)C2 (stereo partly drawn) [Compound 113, 6-chloro-4-oxo-N-[3-(2-{[(1s,3s)-3-(trifluoromethoxy)cyclobutyl]oxy}acetamido)bicyclo[1.1.1]pentan-1-yl]-3,4-dihydro-2H-1-benzopyran-2-carboxamide] | 10 to 50
20 | O=C(CO[C@H]1C[C@@H](OC(F)(F)F)C1)N[C@H]1CC[C@H](C(=O)NCc2ccc(C(F)(F)F)cn2)CC1 [Compound 158, (1r,4r)-4-(2-{[(1s,3s)-3-(trifluoromethoxy)cyclobutyl]oxy}acetamido)-N-([5-(trifluoromethyl)pyridin-2-yl]methyl)cyclohexane-1-carboxamide] | > 2000
21 | O=C(CO[C@H]1C[C@@H](OC(F)(F)F)C1)NC12CCC(NC(=O)[C@H]3C[C@@H](O)c4cc(F)c(F)cc4O3)(CC1)CC2 [Compound 194, (2R,4R)-6,7-difluoro-4-hydroxy-N-[4-(2-{[cis-3-(trifluoromethoxy)cyclobutyl]oxy}acetamido)bicyclo[2.2.2]octan-1-yl]-3,4-dihydro-2H-1-benzopyran-2-carboxamide] | < 10
22 | Cc1nc(C23CC(NC(=O)[C@@H]4C[C@@H](O)c5cc(Cl)ccc5O4)(C2)C3)oc1-c1ccc(Cl)cc1 [Compound 275, (2S,4R)-6-chloro-N-{3-[5-(4-chlorophenyl)-4-methyl-1,3-oxazol-2-yl]bicyclo[1.1.1]pentan-1-yl}-4-hydroxy-3,4-dihydro-2H-1-benzopyran-2-carboxamide] | 50 to 250
23 | O=C1C[C@@H](C(=O)NC23CC(c4nnc(COc5ccc(Cl)c(F)c5)o4)(C2)C3)Oc2ccc(Cl)cc21 [Compound 109, (2S)-6-chloro-N-(3-{5-[(4-chloro-3-fluorophenoxy)methyl]-1,3,4-oxadiazol-2-yl}bicyclo[1.1.1]pentan-1-yl)-4-oxo-3,4-dihydro-2H-1-benzopyran-2-carboxamide] | 10 to 50
24 | O=C1CC(C(=O)N[C@@H]2CC[C@@H](C(=O)NCc3ccc(C(F)(F)F)cc3)OC2)Oc2ccc(Cl)cc21 (stereo partly drawn) [Compound 137, 6-chloro-4-oxo-N-[(3R,6S)-6-({[4-(trifluoromethyl)phenyl]methyl}carbamoyl)oxan-3-yl]-3,4-dihydro-2H-1-benzopyran-2-carboxamide] | 50 to 250

Reference: patent publication US20200347043A1, “MODULATORS OF THE INTEGRATED STRESS PATHWAY” (Calico Life Sciences LLC, priority 2019, published 2020)
